# Measured values from patent publication US20250108038A1 (priority 2023, published 2025).
# Where “and” joins values, the source holds several entries; their conditions need not be identical. Identical values can stand only once.
# Test system: Long Evans rats
# Assay: Behavioral satiety sequence (BSS)
# Type: in vivo, Long Evans rat
# Details: Compound I-19 0.3 mg/kg
# Description: The Behavioural Satiety Sequence (BSS) is a technique used to evaluate physiological satiety. It is based on the expression of a sequence of behaviors including eating, grooming, locomotor activity, followed by resting, which are typically observed in rodents post-ingestion (Halford et al, 1998, Pharmacology Biochemistry and Behaviour. 61(2): 159-168). The BSS is a widely used model for determining the effects of novel pharmaceuticals on food intake and measures of satiety in rodents (Oliveira et al, 2011, Revista de Nutrição. 24(4) 619-628), and to discriminate the cause of reduced food intake following pharmacological manipulation. For example, treatments that may reduce food intake by non-specific mechanisms, such as immobility, malaise, and taste adulteration, will disrupt this sequence (Halford et al, 1998, Pharmacology Biochemistry and Behaviour. 61(2): 159-168).
# Specifically, 12 male Long-Evans rats were food-deprived for 22 h with a 2 h feeding period each day. Rats were trained to consume daily food during the 2 h period over 25 days. The testing phase was initiated once the rats consistently consumed 16-18 g of food per day with ≤10% variance in amount of feed consumed. Feeding took place in designated individual boxes in a quiet room separate from the housing room. Continuous remote monitoring via video camera during feeding was used to assess the BSS. Food consumption was measured by weighing the total available food before and after the 2 h feeding window, correcting for spillage. Lorcaserin (1 mg/kg) was included as a reference control (Higgins et al, 2011, Neuropsychopharmacology. 37(5): 1177-1191). Subjects were tested using a repeated-measures, Latin square design with 2-3 days wash-out between treatment cycles.
# On scheduled test days, animals were monitored remotely via video camera during the feeding access period. The occurrence of four mutually exclusive behaviors (eating/drinking, grooming, active, rest) were individually scored. Over the 2 h feeding period, behaviors were assessed every 30 seconds. Scores were compiled into 23 5 min timebins (timebin 24 was removed due to early removal of animals) and the frequency of each behavior within each timebin was calculated to determine a temporal frequency of each measure (Rodgers et al, 2010, Pharmacology Biochemistry and Behaviour. 97: 3-14). Percentage time was plotted for each behavioral sequence in each timebin to compare between treatment groups (Higgins et al, 2011, Neuropsychopharmacology. 37(5): 1177-1191).
# [1] = AVG of animals LT-1 to LT-12, 0-0.5 hours
# [2] = raw data per animal LT-1 to LT-12, 0-0.5 hours
# [3] = raw score per animal (LT-1 to LT-12)
compound,measurement,setting,value
Clc1ccc(C2(OCC3OCCO3)c3ccccc3C3=NCCN32)cc1 (stereo not drawn) [Compound I-19],"BSS scoring G (grooming), Time Bin 19 (90-95 TOTAL), AVG",AVG of animals LT-1 to LT-12,0.05
same,"BSS scoring G (grooming), Time Bin 20 (95-100 TOTAL), AVG",AVG of animals LT-1 to LT-12,0.05
same,"BSS scoring G (grooming), Time Bin 21 (100-105 TOTAL), AVG",AVG of animals LT-1 to LT-12,0.02
same,"BSS scoring G (grooming), Time Bin 22 (105-110 TOTAL), AVG",AVG of animals LT-1 to LT-12,0.01
same,"BSS scoring G (grooming), Time Bin 23 (110-115 TOTAL), AVG",AVG of animals LT-1 to LT-12,0.05
same,"BSS scoring G (grooming), Time Bin 24 (115-120 TOTAL), AVG",AVG of animals LT-1 to LT-12,0.04
same,"BSS scoring R (resting), Time Bin 19 (90-95 TOTAL), AVG",AVG of animals LT-1 to LT-12,0.11
same,"BSS scoring R (resting), Time Bin 20 (95-100 TOTAL), AVG",AVG of animals LT-1 to LT-12,0.09
same,"BSS scoring R (resting), Time Bin 21 (100-105 TOTAL), AVG",AVG of animals LT-1 to LT-12,0.19
same,"BSS scoring R (resting), Time Bin 22 (105-110 TOTAL), AVG",AVG of animals LT-1 to LT-12,0.21
same,"BSS scoring R (resting), Time Bin 23 (110-115 TOTAL), AVG",AVG of animals LT-1 to LT-12,0.16
same,"BSS scoring R (resting), Time Bin 24 (115-120 TOTAL), AVG",AVG of animals LT-1 to LT-12,0.21
same,"BSS scoring A (active), Time Bin 1 (0-5 TOTAL), AVG",[1],0.09
same,"BSS scoring A (active), Time Bin 2 (5-10 TOTAL), AVG",[1],0.02
same,"BSS scoring A (active), Time Bin 3 (10-15 TOTAL), AVG",[1],0.03
same,"BSS scoring A (active), Time Bin 4 (15-20 TOTAL), AVG",[1],0.08
same,"BSS scoring A (active), Time Bin 5 (20-25 TOTAL), AVG",[1],0.07
same,"BSS scoring A (active), Time Bin 6 (25-30 TOTAL), AVG",[1],0.08
same,"BSS scoring E (eating/drinking), Time Bin 1 (0-5 TOTAL), AVG",[1],0.88
same,"BSS scoring E (eating/drinking), Time Bin 2 (5-10 TOTAL), AVG",[1],0.95
same,"BSS scoring E (eating/drinking), Time Bin 3 (10-15 TOTAL), AVG",[1],0.94
same,"BSS scoring E (eating/drinking), Time Bin 4 (15-20 TOTAL), AVG",[1],0.90
same,"BSS scoring E (eating/drinking), Time Bin 5 (20-25 TOTAL), AVG",[1],0.88
same,"BSS scoring E (eating/drinking), Time Bin 6 (25-30 TOTAL), AVG",[1],0.88
same,"BSS scoring G (grooming), Time Bin 1 (0-5 TOTAL), AVG",[1],0.03
same,"BSS scoring G (grooming), Time Bin 2 (5-10 TOTAL), AVG",[1],0.03
same,"BSS scoring G (grooming), Time Bin 3 (10-15 TOTAL), AVG",[1],0.03
same,"BSS scoring G (grooming), Time Bin 4 (15-20 TOTAL), AVG",[1],0.01
same,"BSS scoring G (grooming), Time Bin 5 (20-25 TOTAL), AVG",[1],0.03
same,"BSS scoring G (grooming), Time Bin 6 (25-30 TOTAL), AVG",[1],0.02
same,"BSS scoring R (resting), Time Bin 1 (0-5 TOTAL), AVG",[1],0.01
same,"BSS scoring R (resting), Time Bin 2 (5-10 TOTAL), AVG",[1],0.00
same,"BSS scoring R (resting), Time Bin 3 (10-15 TOTAL), AVG",[1],0.00
same,"BSS scoring R (resting), Time Bin 4 (15-20 TOTAL), AVG",[1],0.02
same,"BSS scoring R (resting), Time Bin 5 (20-25 TOTAL), AVG",[1],0.03
same,"BSS scoring R (resting), Time Bin 6 (25-30 TOTAL), AVG",[1],0.03
same,"BSS scoring A (active), Time Bin 1 (0-5 TOTAL)",[2],1 (5×) and 0 (4×) and 2 (3×)
same,"BSS scoring A (active), Time Bin 2 (5-10 TOTAL)",[2],0 (10×) and 1 (2×)
same,"BSS scoring A (active), Time Bin 3 (10-15 TOTAL)",[2],0 (9×) and 2 and 1 (2×)
same,"BSS scoring A (active), Time Bin 4 (15-20 TOTAL)",[2],0 (7×) and 1 (3×) and 2 and 4
same,"BSS scoring A (active), Time Bin 5 (20-25 TOTAL)",[2],3 and 0 (7×) and 1 (3×) and 2
same,"BSS scoring A (active), Time Bin 6 (25-30 TOTAL)",[2],1 (3×) and 0 (6×) and 2 (3×)
same,"BSS scoring E (eating/drinking), Time Bin 1 (0-5 TOTAL)",[2],9 (6×) and 7 and 8 (3×) and 10 (2×)
same,"BSS scoring E (eating/drinking), Time Bin 2 (5-10 TOTAL)",[2],9 (6×) and 10 (6×)
same,"BSS scoring E (eating/drinking), Time Bin 3 (10-15 TOTAL)",[2],10 (6×) and 9 (5×) and 8
same,"BSS scoring E (eating/drinking), Time Bin 4 (15-20 TOTAL)",[2],10 (4×) and 9 (6×) and 8 and 6
same,"BSS scoring E (eating/drinking), Time Bin 5 (20-25 TOTAL)",[2],6 and 9 (6×) and 10 (3×) and 8 and 7
same,"BSS scoring E (eating/drinking), Time Bin 6 (25-30 TOTAL)",[2],9 (2×) and 10 (5×) and 7 and 8 (3×) and 6
same,"BSS scoring G (grooming), Time Bin 1 (0-5 TOTAL)",[2],0 (9×) and 1 (3×)
same,"BSS scoring G (grooming), Time Bin 2 (5-10 TOTAL)",[2],1 (4×) and 0 (8×)
same,"BSS scoring G (grooming), Time Bin 3 (10-15 TOTAL)",[2],0 (9×) and 1 (3×)
same,"BSS scoring G (grooming), Time Bin 4 (15-20 TOTAL)",[2],0 (11×) and 1
same,"BSS scoring G (grooming), Time Bin 5 (20-25 TOTAL)",[2],1 (4×) and 0 (8×)
same,"BSS scoring G (grooming), Time Bin 6 (25-30 TOTAL)",[2],0 (10×) and 1 (2×)
same,"BSS scoring R (resting), Time Bin 1 (0-5 TOTAL)",[2],0 (11×) and 1
same,"BSS scoring R (resting), Time Bin 2 (5-10 TOTAL)",[2],0
same,"BSS scoring R (resting), Time Bin 3 (10-15 TOTAL)",[2],0
same,"BSS scoring R (resting), Time Bin 4 (15-20 TOTAL)",[2],0 (10×) and 1 (2×)
same,"BSS scoring R (resting), Time Bin 5 (20-25 TOTAL)",[2],0 (10×) and 1 and 2
same,"BSS scoring R (resting), Time Bin 6 (25-30 TOTAL)",[2],0 (10×) and 3 and 1
same,"BSS scoring A (active), Time Bin 19 (90-95 TOTAL)",[3],0 (4×) and 5 (2×) and 2 (2×) and 6 and 3 and 1 (2×)
same,"BSS scoring A (active), Time Bin 20 (95-100 TOTAL)",[3],3 (2×) and 2 (2×) and 0 (4×) and 1 (2×) and 4 (2×)
same,"BSS scoring A (active), Time Bin 21 (100-105 TOTAL)",[3],0 (7×) and 1 (3×) and 2 (2×)
same,"BSS scoring A (active), Time Bin 22 (105-110 TOTAL)",[3],0 (8×) and 4 and 1 and 2 (2×)
same,"BSS scoring A (active), Time Bin 23 (110-115 TOTAL)",[3],4 (2×) and 3 and 1 and 0 (4×) and 6 (2×) and 2 and 7
same,"BSS scoring A (active), Time Bin 24 (115-120 TOTAL)",[3],0 (6×) and 3 (2×) and 5 and 1 (2×) and 4
same,"BSS scoring E (eating/drinking), Time Bin 19 (90-95 TOTAL)",[3],9 (5×) and 4 (2×) and 0 and 2 and 7 and 8 and 5
same,"BSS scoring E (eating/drinking), Time Bin 20 (95-100 TOTAL)",[3],7 and 6 (2×) and 10 (3×) and 9 and 8 (2×) and 1 and 4 (2×)
same,"BSS scoring E (eating/drinking), Time Bin 21 (100-105 TOTAL)",[3],10 (4×) and 9 (2×) and 6 and 7 and 0 and 8 and 5 and 4
same,"BSS scoring E (eating/drinking), Time Bin 22 (105-110 TOTAL)",[3],10 (6×) and 0 (2×) and 3 and 7 and 8 and 5
same,"BSS scoring E (eating/drinking), Time Bin 23 (110-115 TOTAL)",[3],5 (2×) and 6 and 9 (2×) and 1 (2×) and 4 (2×) and 0 and 8 and 10
same,"BSS scoring E (eating/drinking), Time Bin 24 (115-120 TOTAL)",[3],0 (3×) and 6 (2×) and 10 and 4 (2×) and 2 and 8 (2×) and 5
same,"BSS scoring G (grooming), Time Bin 19 (90-95 TOTAL)",[3],0 (8×) and 1 (3×) and 3
same,"BSS scoring G (grooming), Time Bin 20 (95-100 TOTAL)",[3],0 (8×) and 1 (2×) and 2 (2×)
same,"BSS scoring G (grooming), Time Bin 21 (100-105 TOTAL)",[3],0 (10×) and 1 (2×)
